Source: patent publication US12649726B2, “Substituted tetrahydroisoquinoline derivative as a D1 positive allosteric modulator” (UCB Biopharma SRL, priority 2020, dated 2026)
Where “and” joins values, the source holds several entries; their conditions need not be identical. Equal values may be shown once.

Tests used:
Assay type in all cases: cell-based
[1] = target: T1, human GABAA receptor α1,β2 and γ2 subunits (Homo sapiens, UniProt P14867+P18507+P47870); assay: Automated patch clamp GABAA receptor inhibition assay (IonFlux HT); conditions: 10 μM compound, 15 μM GABA, CHO-K1 cells, holding potential −60 mV; read-out: percentage of inhibition of the GABAA receptor
T1 construct: expressed in transfected cells; host or cells: CHO-K1 cells
Procedure: CHO-K1 cells stably expressing human GABAA receptor α1,β2 and γ2 subunits were used. The cells were harvested using trypsin and maintained in serum-free medium at room temperature. The cells were washed and re-suspended in extracellular solution before testing.
Experiments on human GABAA (α1β2γ2) channels were conducted using an automated patch clamp assay (IonFlux™ HT). Compounds were tested at 3 concentrations (0.1, 1, and 10 μM) in 3 to 4 cells. The external solution for recording GABAA currents was composed of sodium chloride 137 mM, potassium chloride 4 mM, calcium chloride 1.8 mM, magnesium chloride 1 mM, HEPES 10 mM, and glucose 10 mM. Both external and internal solutions were titrated with NaOH or KOH to obtain a pH of 7.35 or 7.3, respectively. The internal pipette solution contained potassium fluoride 70 mM, potassium chloride 60 mM, sodium chloride 70 mM, HEPES 5 mM, EGTA 5 mM, and Magnesium ATP 4 mM. The final concentration of vehicle used to dilute compounds was 0.33% DMSO in each well. Bicuculline (0.032 to 100 μM) was used as positive control inhibitor. GABA (15 μM) was used as agonist. […]
The compound addition sequence was the following: one addition of the EC80 concentration of GABA was added to establish baseline response. […] Peak inward currents in response to the GABA additions in the presence of a single concentration of compound were measured. […]

dopamine D1 receptor [2] = target: T2, dopamine D1 receptor (Homo sapiens, UniProt P21728); assay: cAMP HTRF potentiation assay (presence of EC20 dopamine)
T2 construct: host or cells: LMtk (Ltk−) mouse fibroblast cells
From the text: (§1) Assays have been designed to measure the effects of compounds in accordance with the present invention in the absence of dopamine (“activation assay”) and in the presence of dopamine (“potentiation assay”).
The potentiation assay measures the ability of compounds to increase the levels of cAMP produced by a low-threshold concentration of dopamine. The concentration of dopamine used ([EC20]) is designed to produce 20% stimulation compared to the maximal response (100%) seen with increasing the concentration of dopamine. To measure this potentiation increasing concentrations of the compound with the [EC20] of dopamine are incubated and the potentiation is measured as increases in cAMP production and concentration of compound which produces 50% of the potentiation of the cAMP levels is measured.
(§2) Cells were cultured at 37° C. in a humidified atmosphere of 5% CO2. […]
(§3) The measurement of changes in intracellular cyclic adenosinemonophopshpate (cAMP) was determined using the HTRF cAMP dynamic assay kit from CisBio (Codolet, France). Using homogenous time-resolved fluorescence technology, the assay is based on competition between native cAMP produced by cells and cAMP labelled with the dye d2. The tracer binding is determined by an anti-cAMP antibody labeled with cryptate. […]

dopamine D1 receptor [3] = target: T2, dopamine D1 receptor; assay: cAMP HTRF activation assay (absence of dopamine); conditions: 10 μM compound, LMtk (Ltk−) cells expressing D1, read-out: activation (compared to dopamine maximal response)
From the text: as §1
The activation assay measures the stimulation of the production of cyclic adenosinemonophosphate (cAMP) in the Homogeneous Time Resolved Fluorescent (HTRF) assay, with the maximum increase in cAMP by increasing concentrations of the endogenous agonist, dopamine, defined as 100% activation.
as §2
as §3, with “cryptate. The effects of the compound alone (agonism) was determined by performing the assay in the absence of dopamine, whilst the effect of the compound as a positive allosteric modulator (PAM) was determined in the presence of an EC20 concentration of dopamine.” for “cryptate.”

T2 sequence (P21728 whole entry): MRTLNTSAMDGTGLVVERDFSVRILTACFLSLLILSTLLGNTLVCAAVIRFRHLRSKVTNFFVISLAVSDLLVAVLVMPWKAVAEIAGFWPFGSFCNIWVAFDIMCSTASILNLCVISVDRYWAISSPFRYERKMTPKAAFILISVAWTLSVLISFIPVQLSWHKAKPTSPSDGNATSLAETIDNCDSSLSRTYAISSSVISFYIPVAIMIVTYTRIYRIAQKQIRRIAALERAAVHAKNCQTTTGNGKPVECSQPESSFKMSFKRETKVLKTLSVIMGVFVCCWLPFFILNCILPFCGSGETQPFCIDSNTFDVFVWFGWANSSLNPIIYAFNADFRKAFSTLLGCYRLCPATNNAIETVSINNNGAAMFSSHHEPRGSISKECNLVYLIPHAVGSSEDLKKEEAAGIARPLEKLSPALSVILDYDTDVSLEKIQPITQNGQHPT
T1 sequence (P14867 28-456): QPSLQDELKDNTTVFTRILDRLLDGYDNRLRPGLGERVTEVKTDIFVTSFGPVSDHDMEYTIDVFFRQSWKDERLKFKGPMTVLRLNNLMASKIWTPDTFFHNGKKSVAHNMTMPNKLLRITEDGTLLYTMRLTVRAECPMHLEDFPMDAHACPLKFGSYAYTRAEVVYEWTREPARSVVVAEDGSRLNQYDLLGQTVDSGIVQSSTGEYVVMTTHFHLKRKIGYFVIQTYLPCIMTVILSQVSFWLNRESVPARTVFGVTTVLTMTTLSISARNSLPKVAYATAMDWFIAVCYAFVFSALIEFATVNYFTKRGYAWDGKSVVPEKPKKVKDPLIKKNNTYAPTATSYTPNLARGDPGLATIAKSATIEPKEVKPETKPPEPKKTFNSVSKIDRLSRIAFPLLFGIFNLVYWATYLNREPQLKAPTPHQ
T1 sequence (P47870 25-512 limits assumed): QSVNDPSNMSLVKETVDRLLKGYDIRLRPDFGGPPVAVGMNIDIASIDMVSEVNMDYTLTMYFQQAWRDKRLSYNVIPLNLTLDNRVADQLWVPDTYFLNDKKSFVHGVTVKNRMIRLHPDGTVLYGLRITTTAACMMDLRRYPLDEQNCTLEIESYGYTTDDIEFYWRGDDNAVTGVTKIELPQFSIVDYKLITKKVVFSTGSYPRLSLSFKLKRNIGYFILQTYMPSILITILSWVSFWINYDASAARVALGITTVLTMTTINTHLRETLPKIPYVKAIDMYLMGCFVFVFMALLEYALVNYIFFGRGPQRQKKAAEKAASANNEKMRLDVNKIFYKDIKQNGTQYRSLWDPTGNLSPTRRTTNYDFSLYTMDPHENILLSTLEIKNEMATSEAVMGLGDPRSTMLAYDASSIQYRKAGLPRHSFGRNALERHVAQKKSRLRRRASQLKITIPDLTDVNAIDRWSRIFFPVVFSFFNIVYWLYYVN
T1 sequence (P18507 40-475): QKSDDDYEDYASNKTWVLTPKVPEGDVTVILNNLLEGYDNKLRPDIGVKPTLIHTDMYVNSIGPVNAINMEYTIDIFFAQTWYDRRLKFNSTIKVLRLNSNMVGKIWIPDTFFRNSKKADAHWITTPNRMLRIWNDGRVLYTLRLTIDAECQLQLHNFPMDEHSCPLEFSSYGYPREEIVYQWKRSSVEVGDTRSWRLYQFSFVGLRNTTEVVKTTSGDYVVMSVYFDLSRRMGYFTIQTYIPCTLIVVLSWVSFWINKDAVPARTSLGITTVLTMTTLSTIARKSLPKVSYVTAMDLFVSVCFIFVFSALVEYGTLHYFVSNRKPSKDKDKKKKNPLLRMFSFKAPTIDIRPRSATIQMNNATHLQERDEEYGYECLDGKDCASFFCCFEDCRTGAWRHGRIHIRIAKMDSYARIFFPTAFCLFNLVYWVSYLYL

Q: How did the inhibition at 10 µM [1] turn out when `C[C@H]1c2cccc(C(C)(C)O)c2C[C@H](CO)N1C(=O)Cc1c(Cl)ccc2[nH]nc(Cl)c12` [compound of formula (I), 2-(3,5-dichloro-1H-indazol-4-yl)-1-[(1S,3R)-3-(hydroxymethyl)-5-(1-hydroxy-1-methyl-ethyl)-1-methyl-3,4-dihydro-1H-isoquinolin-2-yl]ethanone] was run?
A: The inhibition at 10 µM was under 0.1%.

Q: What about the “Erel (relative efficacy, maximal % potentiation vs dopamine maximal response)” value (dopamine D1 receptor [2]; in presence of [EC20] dopamine (1.1 nM), dopamine maximum = 100%) of the same compound?
A: The value was “about 62%”.

Q: And the EC50 (dopamine D1 receptor [2]; potentiation of cAMP in presence of [EC20] dopamine (1.1 nM), LMtk (Ltk−) cells expressing D1)?
A: Its EC50 is ~6.31 nM and < 31.6 nM.

Q: What about the Emax at 10 µM (dopamine D1 receptor [3]) of the same compound?
A: Its Emax at 10 µM is under 20%.
